Measurements reported in ChEMBL document CHEMBL1131216, “Anhydrolide macrolides. 2. Synthesis and antibacterial activity of 2,3-anhydro-6-O-methyl 11,12-carbazate erythromycin A analogues” (1998).
≈ marks a conversion by molar mass, not a printed value.

Experiments:
Type in all cases: functional
Haemophilus influenzae = test: In vitro antibacterial activity of DILL strain of Gram negative bacteria Haemophilus influenzae
Streptococcus pneumoniae [1] = test: In vitro antibacterial activity of 5649 strain of Gram positive bacteria Streptococcus pneumoniae
Streptococcus pneumoniae [2] = test: In vitro antibacterial activity of 5979 strain of Gram positive bacteria Streptococcus pneumoniae
Streptococcus pneumoniae [3] = test: In vitro antibacterial activity of ATCC 6303 strain of Gram positive bacteria Streptococcus pneumoniae
Staphylococcus aureus [4] = test: In vitro antibacterial activity of A5177 strain of Gram positive bacteria Staphylococcus aureus
Streptococcus pyogenes [5] = test: In vitro antibacterial activity of 930 strain of Gram positive bacteria Streptococcus pyogenes
Streptococcus pyogenes [6] = test: In vitro antibacterial activity of EES61 strain of Gram positive bacteria Streptococcus pyogenes
Streptococcus pyogenes [7] = test: In vitro antibacterial activity of PIU2584 strain of Gram positive bacteria Streptococcus pyogenes
Staphylococcus aureus [8] = test: In vitro antibacterial activity of A-5278 strain of Gram positive bacteria Staphylococcus aureus
Staphylococcus aureus [9] = test: In vitro antibacterial activity of 6538P strain of Gram positive bacteria Staphylococcus aureus

SMILES | MIC (Haemophilus influenzae) [µg/mL] | MIC (Streptococcus pneumoniae [1]) [µg/mL] | MIC (Streptococcus pneumoniae [2]) [µg/mL] | MIC (Streptococcus pneumoniae [3]) [µg/mL] | MIC (Staphylococcus aureus [4]) [µg/mL] | MIC (Streptococcus pyogenes [5]) [µg/mL] | MIC (Streptococcus pyogenes [6]) [µg/mL] | MIC (Streptococcus pyogenes [7]) [µg/mL] | MIC (Staphylococcus aureus [8]) [µg/mL] | MIC (Staphylococcus aureus [9]) [µg/mL]
CC[C@H]1OC(=O)/C(C)=C/[C@H](C)[C@@H](O[C@@H]2O[C@H](C)C[C@H](N(C)C)[C@H]2O)[C@@](C)(OC)C[C@@H](C)C(=O)[C@H](C)[C@H]2N(NCCCc3ccc(OC)cc3)C(=O)O[C@]12C | 16 (≈ 21.1 µM) | 2 (≈ 2.63 µM) | > 64 | 0.06 (≈ 0.0789 µM) | 0.39 (≈ 0.513 µM) | 64 (≈ 84.2 µM) | 0.03 (≈ 0.0395 µM) | 1 (≈ 1.32 µM) | > 100 | 0.39 (≈ 0.513 µM)
CC[C@H]1OC(=O)/C(C)=C/[C@H](C)[C@@H](O[C@@H]2O[C@H](C)C[C@H](N(C)C)[C@H]2O)[C@@](C)(OC)C[C@@H](C)C(=O)[C@H](C)[C@H]2N(NCCCc3cccc(Cl)c3)C(=O)O[C@]12C | 32 (≈ 41.9 µM) | 2 (≈ 2.62 µM) | 32 (≈ 41.9 µM) | 0.25 (≈ 0.327 µM) | 0.39 (≈ 0.51 µM) | 16 (≈ 20.9 µM) | 0.25 (≈ 0.327 µM) | 1 (≈ 1.31 µM) | 50 (≈ 65.4 µM) | 0.39 (≈ 0.51 µM)
CC[C@H]1OC(=O)/C(C)=C/[C@H](C)[C@@H](O[C@@H]2O[C@H](C)C[C@H](N(C)C)[C@H]2O)[C@@](C)(OC)C[C@@H](C)C(=O)[C@H](C)[C@H]2N(NCCCc3ccc(Cl)cc3Cl)C(=O)O[C@]12C | 16 (≈ 20 µM) | 2 (≈ 2.5 µM) | 8 (≈ 10 µM) | 0.125 (≈ 0.156 µM) | 0.39 (≈ 0.488 µM) | 8 (≈ 10 µM) | 0.06 (≈ 0.0751 µM) | 1 (≈ 1.25 µM) | 25 (≈ 31.3 µM) | 0.39 (≈ 0.488 µM)
CC[C@H]1OC(=O)/C(C)=C/[C@H](C)[C@@H](O[C@@H]2O[C@H](C)C[C@H](N(C)C)[C@H]2O)[C@@](C)(OC)C[C@@H](C)C(=O)[C@H](C)[C@H]2N(NCCCc3ccccc3)C(=O)O[C@]12C | 16 (≈ 21.9 µM) | 2 (≈ 2.74 µM) | 64 (≈ 87.7 µM) | 0.125 (≈ 0.171 µM) | 0.1 (≈ 0.137 µM) | 32 (≈ 43.8 µM) | 0.06 (≈ 0.0822 µM) | 1 (≈ 1.37 µM) | 50 (≈ 68.5 µM) | 0.1 (≈ 0.137 µM)
CC[C@H]1OC(=O)/C(C)=C/[C@H](C)[C@@H](O[C@@H]2O[C@H](C)C[C@H](N(C)C)[C@H]2O)[C@@](C)(OC)C[C@@H](C)C(=O)[C@H](C)[C@H]2N(NCc3ccc(C(F)(F)F)cc3)C(=O)O[C@]12C | 16 (≈ 20.8 µM) | 2 (≈ 2.6 µM) | 16 (≈ 20.8 µM) | 0.06 (≈ 0.0779 µM) | 0.78 (≈ 1.01 µM) | 16 (≈ 20.8 µM) | 0.06 (≈ 0.0779 µM) | 2 (≈ 2.6 µM) | 100 (≈ 130 µM) | 0.78 (≈ 1.01 µM)
CC[C@H]1OC(=O)/C(C)=C/[C@H](C)[C@@H](O[C@@H]2O[C@H](C)C[C@H](N(C)C)[C@H]2O)[C@@](C)(OC)C[C@@H](C)C(=O)[C@H](C)[C@H]2N(NCc3c[nH]c4ccccc34)C(=O)O[C@]12C | 8 (≈ 10.8 µM) | 1 (≈ 1.35 µM) | > 64 | 0.125 (≈ 0.169 µM) | 0.39 (≈ 0.526 µM) | > 64 | 0.06 (≈ 0.081 µM) | 0.5 (≈ 0.675 µM) | > 100 | 0.39 (≈ 0.526 µM)
CC[C@H]1OC(=O)/C(C)=C/[C@H](C)[C@@H](O[C@@H]2O[C@H](C)C[C@H](N(C)C)[C@H]2O)[C@@](C)(OC)C[C@@H](C)C(=O)[C@H](C)[C@H]2N(NCCCn3nc4ccccc4n3)C(=O)O[C@]12C | 8 (≈ 10.4 µM) | 0.5 (≈ 0.649 µM) | > 128 | 0.004 (≈ 0.00519 µM) | 0.2 (≈ 0.259 µM) | 128 (≈ 166 µM) | 0.004 (≈ 0.00519 µM) | 1 (≈ 1.3 µM) | > 100 | 0.2 (≈ 0.259 µM)
CC[C@H]1OC(=O)C(C)C(=O)[C@H](C)[C@@H](O[C@@H]2O[C@H](C)C[C@H](N(C)C)[C@H]2O)[C@@](C)(OC)C[C@@H](C)C(=O)[C@H](C)[C@H]2N(NCCCc3ccnc4ccccc34)C(=O)O[C@]12C (stereo not given in full) | 1 (≈ 1.25 µM) | 0.5 (≈ 0.627 µM) | 8 (≈ 10 µM) | 0.004 (≈ 0.00502 µM) | 0.05 (≈ 0.0627 µM) | 2 (≈ 2.51 µM) | 0.008 (≈ 0.01 µM) | 0.25 (≈ 0.314 µM) | > 100 | 0.1 (≈ 0.125 µM)
CC[C@H]1OC(=O)/C(C)=C/[C@H](C)[C@@H](O[C@@H]2O[C@H](C)C[C@H](N(C)C)[C@H]2O)[C@@](C)(OC)C[C@@H](C)C(=O)[C@H](C)[C@H]2N(NCCCc3cccc([N+](=O)[O-])c3)C(=O)O[C@]12C | 8 (≈ 10.3 µM) | 0.25 (≈ 0.323 µM) | 128 (≈ 165 µM) | 0.004 (≈ 0.00516 µM) | 0.2 (≈ 0.258 µM) | 64 (≈ 82.6 µM) | 0.004 (≈ 0.00516 µM) | 0.25 (≈ 0.323 µM) | > 100 | 0.2 (≈ 0.258 µM)
CC[C@H]1OC(=O)/C(C)=C/[C@H](C)[C@@H](O[C@@H]2O[C@H](C)C[C@H](N(C)C)[C@H]2O)[C@@](C)(OC)C[C@@H](C)C(=O)[C@H](C)[C@H]2N(NCCc3ccccc3)C(=O)O[C@]12C | > 64 | 2 (≈ 2.79 µM) | > 64 | 0.25 (≈ 0.349 µM) | 0.78 (≈ 1.09 µM) | 64 (≈ 89.4 µM) | 0.25 (≈ 0.349 µM) | 2 (≈ 2.79 µM) | > 100 | 0.78 (≈ 1.09 µM)
CC[C@H]1OC(=O)/C(C)=C/[C@H](C)[C@@H](O[C@@H]2O[C@H](C)C[C@H](N(C)C)[C@H]2O)[C@@](C)(OC)C[C@@H](C)C(=O)[C@H](C)[C@H]2N(NCc3ccncc3)C(=O)O[C@]12C | 8 (≈ 11.4 µM) | 1 (≈ 1.42 µM) | > 128 | 0.03 (≈ 0.0427 µM) | 0.2 (≈ 0.285 µM) | > 128 | 0.03 (≈ 0.0427 µM) | 0.5 (≈ 0.711 µM) | > 100 | 0.39 (≈ 0.555 µM)
CC[C@H]1OC(=O)/C(C)=C/[C@H](C)[C@@H](O[C@@H]2O[C@H](C)C[C@H](N(C)C)[C@H]2O)[C@@](C)(OC)C[C@@H](C)C(=O)[C@H](C)[C@H]2N(NCc3ccc(C#N)cc3)C(=O)O[C@]12C | 4 (≈ 5.5 µM) | 0.5 (≈ 0.688 µM) | > 128 | 0.03 (≈ 0.0413 µM) | 0.02 (≈ 0.0275 µM) | 128 (≈ 176 µM) | 0.015 (≈ 0.0206 µM) | 0.5 (≈ 0.688 µM) | > 100 | 0.05 (≈ 0.0688 µM)
CC[C@H]1OC(=O)/C(C)=C/[C@H](C)[C@@H](O[C@@H]2O[C@H](C)C[C@H](N(C)C)[C@H]2O)[C@@](C)(OC)C[C@@H](C)C(=O)[C@H](C)[C@H]2N(NCCCc3ccc([N+](=O)[O-])cc3)C(=O)O[C@]12C | 8 (≈ 10.3 µM) | 1 (≈ 1.29 µM) | 64 (≈ 82.6 µM) | 0.03 (≈ 0.0387 µM) | 0.1 (≈ 0.129 µM) | 64 (≈ 82.6 µM) | 0.03 (≈ 0.0387 µM) | 1 (≈ 1.29 µM) | > 100 | 0.1 (≈ 0.129 µM)
CC[C@H]1OC(=O)/C(C)=C/[C@H](C)[C@@H](O[C@@H]2O[C@H](C)C[C@H](N(C)C)[C@H]2O)[C@@](C)(OC)C[C@@H](C)C(=O)[C@H](C)[C@H]2N(NCc3ccc(N(C)C)c4ccccc34)C(=O)O[C@]12C | 16 (≈ 20.1 µM) | 2 (≈ 2.52 µM) | 32 (≈ 40.3 µM) | 0.5 (≈ 0.629 µM) | 3.1 (≈ 3.9 µM) | 16 (≈ 20.1 µM) | 0.25 (≈ 0.314 µM) | 2 (≈ 2.52 µM) | 100 (≈ 126 µM) | 3.1 (≈ 3.9 µM)
CC[C@H]1OC(=O)/C(C)=C/[C@H](C)[C@@H](O[C@@H]2O[C@H](C)C[C@H](N(C)C)[C@H]2O)[C@@](C)(OC)C[C@@H](C)C(=O)[C@H](C)[C@H]2N(NCc3ccccc3CO)C(=O)O[C@]12C | 4 (≈ 5.47 µM) | 1 (≈ 1.37 µM) | > 128 | 0.03 (≈ 0.041 µM) | 0.2 (≈ 0.273 µM) | > 128 | 0.03 (≈ 0.041 µM) | 0.5 (≈ 0.683 µM) | > 100 | 0.2 (≈ 0.273 µM)
CC[C@H]1OC(=O)/C(C)=C/[C@H](C)[C@@H](O[C@@H]2O[C@H](C)C[C@H](N(C)C)[C@H]2O)[C@@](C)(OC)C[C@@H](C)C(=O)[C@H](C)[C@H]2N(NCc3ccc([N+](=O)[O-])cc3)C(=O)O[C@]12C | 8 (≈ 10.7 µM) | 1 (≈ 1.34 µM) | > 128 | 0.03 (≈ 0.0402 µM) | 0.05 (≈ 0.0669 µM) | 128 (≈ 171 µM) | 0.03 (≈ 0.0402 µM) | 1 (≈ 1.34 µM) | > 100 | 0.05 (≈ 0.0669 µM)
